The values that follow are results of earlier work, collected in patent US11766458B2, “Method and a dietary composition on regulation, treatment, and prevention of obesity” (priority 2021, dated 2023).

The conditions of data set [1]: Nutrition & Diabetes volume 11, Article number: 3, 2021.

With `N[C@@H](Cc1c[nH]c2ccccc12)C(=O)O` [tryptophan], the Gastric emptying result in data set [1] was “delays the gastric emptying”.
Take `N=C(N)NCCC[C@H](N)C(=O)O` [L-arginine]: in the data set with DIO C57BL/6 mice (oral 1 g/kg 15 minutes before OGTT), the GLP-1 secretion entry is reported as “induces GLP-1 secretion”. For the same compound, in the data set with DIO C57BL/6 mice (oral 1 g/kg 15 minutes before OGTT (2 g glucose/kg bw)), the Glucose resistance result is reported as “improves glucose resistance”. Further, the “Energy intake (food diary)” value (after L-arginine treatment) was “less energy intake”. Where the note is “healthy people, oral 17.1 mmol, after unlimited meals, p<0.001”, the “Release of plasma PYY” value is recorded as “stimulated”. Moreover, the “Release of plasma GLP-1” value (healthy people, oral 17.1 mmol, after unlimited meals, p<0.05) is “stimulated”.
